Results: US10093658B2, “Bifunctional compounds and use for reducing uric acid levels” (Acquist LLC, priority 2015, dated 2018)
Where “and” joins values, the source holds several entries; their conditions need not be identical. Identical values can stand only once. Like-named read-outs stand apart in the source and are kept apart here.

Columns and labels:
Xanthine oxidase = Xanthine oxidase (Homo sapiens (Human), UniProt P47989); assay: Fluorescence-based xanthine oxidase activity assay; type: biochemical; conditions: for XO inhibition (in words): qualitative statement
Xanthine oxidase, sequence (P47989 whole entry, species assumed): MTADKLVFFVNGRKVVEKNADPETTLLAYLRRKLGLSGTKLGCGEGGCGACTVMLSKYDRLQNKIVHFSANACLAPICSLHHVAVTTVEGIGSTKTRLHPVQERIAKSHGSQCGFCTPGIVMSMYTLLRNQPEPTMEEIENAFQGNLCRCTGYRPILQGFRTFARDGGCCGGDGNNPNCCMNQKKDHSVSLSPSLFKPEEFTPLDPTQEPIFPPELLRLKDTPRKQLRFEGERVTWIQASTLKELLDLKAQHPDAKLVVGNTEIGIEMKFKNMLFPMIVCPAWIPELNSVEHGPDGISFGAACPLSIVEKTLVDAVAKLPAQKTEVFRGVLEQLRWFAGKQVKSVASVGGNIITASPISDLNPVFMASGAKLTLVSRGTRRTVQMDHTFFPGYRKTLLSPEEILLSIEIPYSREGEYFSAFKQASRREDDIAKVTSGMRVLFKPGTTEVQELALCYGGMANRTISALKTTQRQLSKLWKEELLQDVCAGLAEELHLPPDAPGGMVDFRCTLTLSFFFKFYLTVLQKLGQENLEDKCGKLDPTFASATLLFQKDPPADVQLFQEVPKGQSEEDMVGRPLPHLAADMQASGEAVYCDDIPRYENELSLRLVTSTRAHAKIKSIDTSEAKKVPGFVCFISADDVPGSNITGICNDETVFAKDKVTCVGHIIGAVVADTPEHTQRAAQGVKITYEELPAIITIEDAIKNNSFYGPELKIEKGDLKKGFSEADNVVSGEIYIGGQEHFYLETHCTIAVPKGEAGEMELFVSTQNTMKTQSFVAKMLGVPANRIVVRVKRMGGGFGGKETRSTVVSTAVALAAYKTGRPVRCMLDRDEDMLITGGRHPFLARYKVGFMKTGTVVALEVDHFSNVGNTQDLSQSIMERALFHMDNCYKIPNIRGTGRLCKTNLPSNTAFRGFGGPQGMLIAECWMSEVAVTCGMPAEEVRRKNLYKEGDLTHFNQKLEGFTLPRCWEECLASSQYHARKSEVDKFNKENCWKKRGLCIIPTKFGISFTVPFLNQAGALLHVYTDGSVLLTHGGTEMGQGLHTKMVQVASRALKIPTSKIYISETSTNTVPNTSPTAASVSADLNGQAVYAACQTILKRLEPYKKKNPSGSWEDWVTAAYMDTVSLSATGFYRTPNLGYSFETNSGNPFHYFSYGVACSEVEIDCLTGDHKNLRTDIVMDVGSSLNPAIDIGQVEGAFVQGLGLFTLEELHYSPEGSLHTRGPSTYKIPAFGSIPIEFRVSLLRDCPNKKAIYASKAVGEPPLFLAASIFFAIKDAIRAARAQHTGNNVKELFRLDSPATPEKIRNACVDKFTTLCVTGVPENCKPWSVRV

URAT1 (SLC22A12) = URAT1 (SLC22A12) (Homo sapiens (Human), UniProt Q96S37); assay: URAT1 (SLC22A12) cellular uptake assay, 3H-orotate transport in stably transfected URAT-1/CHO cells; conditions: for URAT1 inhibition (in words): qualitative statement
URAT1 (SLC22A12), sequence (Q96S37 whole entry): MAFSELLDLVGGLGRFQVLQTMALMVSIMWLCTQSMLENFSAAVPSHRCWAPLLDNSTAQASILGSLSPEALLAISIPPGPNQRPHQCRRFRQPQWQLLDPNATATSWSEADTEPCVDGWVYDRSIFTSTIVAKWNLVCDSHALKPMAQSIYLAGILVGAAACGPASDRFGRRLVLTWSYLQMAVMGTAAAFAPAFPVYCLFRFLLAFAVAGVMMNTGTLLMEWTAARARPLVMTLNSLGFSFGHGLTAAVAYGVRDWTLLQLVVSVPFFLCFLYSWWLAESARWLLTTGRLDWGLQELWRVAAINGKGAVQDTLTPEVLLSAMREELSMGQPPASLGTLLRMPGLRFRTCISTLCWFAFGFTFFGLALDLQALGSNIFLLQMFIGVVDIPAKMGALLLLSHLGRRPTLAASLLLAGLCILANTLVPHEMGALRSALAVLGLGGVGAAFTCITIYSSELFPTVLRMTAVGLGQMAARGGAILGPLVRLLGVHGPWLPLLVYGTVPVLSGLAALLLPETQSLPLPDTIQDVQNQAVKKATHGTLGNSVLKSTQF

[1] = fluorescence-based assay, triplicate, 10 concentrations, read-out: Xanthine Oxidase IC50
[2] = read-out: URAT1 IC50, URAT-1/CHO cells, 3H-orotate uptake, URAT1 assay as described herein

| Compound | IC50 (Xanthine oxidase; [1]) | XO inhibition (in words) (Xanthine oxidase) | URAT1 inhibition (in words) (URAT1 (SLC22A12)) | IC50 (URAT1 (SLC22A12); [2]) [µM] | IC50 (Xanthine oxidase) [µM] | IC50 (URAT1 (SLC22A12)) [µM] |
| --- | --- | --- | --- | --- | --- | --- |
| NS(=O)(=O)c1ccc(NC(=O)c2c(O)[nH]c(=O)[nH]c2=O)cc1 [Formula (Ia), 6-hydroxy-2,4-dioxo-N-(4-sulfamoylphenyl)-1,2,3,4-tetrahydropyrimidine-5-carboxamide] | ≥ 300 µM |  |  |  |  |  |
| O=C(Nc1ccc(-c2noc(=O)[nH]2)cc1)c1c(O)[nH]c(=S)[nH]c1=O [Formula (Ig), 6-Hydroxy-4-oxo-N-(4-(5-oxo-4,5-dihydro-1,2,4-oxadiazol-3-yl)phenyl)-2-thioxo-1,2,3,4-tetrahydropyrimidine-5-carboxamide] | 3.29 µM and 8.01 µM | acceptable XO inhibitor | poor URAT1 inhibitor | > 150 |  |  |
| O=C(Nc1ccc(NS(=O)(=O)C(F)(F)F)cc1)c1c(O)[nH]c(=O)[nH]c1=O [Formula (Ic), 6-hydroxy-2,4-dioxo-N-(4-(trifluoromethylsulfonamido)phenyl)-1,2,3,4-tetrahydropyrimidine-5-carboxamide] | 201 µM |  |  |  |  |  |
| O=C(Nc1ccc(-n2cnnn2)cc1)c1c(O)[nH]c(=O)[nH]c1=O [Formula (IIc), N-(4-(1H-tetrazol-1-yl)phenyl)-6-hydroxy-2,4-dioxo-1,2,3,4-tetrahydropyrimidine-5-carboxamide] | 20.7 µM |  |  |  |  |  |
| O=C(Nc1ccc(-c2cnn[nH]2)cc1)c1c(O)[nH]c(=O)[nH]c1=O [Formula (IIe), N-(4-(1H-1,2,3-triazol-5-yl)phenyl)-6-hydroxy-2,4-dioxo-1,2,3,4-tetrahydropyrimidine-5-carboxamide] | 1.24 µM and 1.14 µM |  |  | 0.69 |  |  |
| O=C(Nc1ccc(-c2nnn[nH]2)cc1)c1c(O)[nH]c(=O)[nH]c1=O [Formula (IIa), N-(4-(2H-tetrazol-5-yl)phenyl)-6-hydroxy-2,4-dioxo-1,2,3,4-tetrahydropyrimidine-5-carboxamide] | 0.68 µM |  |  | 9.54 |  |  |
| O=C(Nc1ccc(-c2noc(=O)[nH]2)cc1)c1c(O)[nH]c(=O)[nH]c1=O [Formula (If), 6-hydroxy-2,4-dioxo-N-(4-(5-oxo-4,5-dihydro-1,2,4-oxadiazol-3-yl)phenyl)-1,2,3,4-tetrahydropyrimidine-5-carboxamide] | 4.81 µM and 7.74 µM | active against both targets | active against both targets | 7.6 |  |  |
| O=C(Nc1ccc(O)c(CO)c1)c1c(O)[nH]c(=O)[nH]c1=O [Formula (Id), 6-hydroxy-N-(4-hydroxy-3-(hydroxymethyl)phenyl)-2,4-dioxo-1,2,3,4-tetrahydropyrimidine-5-carboxamide] | 3.66 µM |  |  | 7.26 | < 10 | < 10 |
| O=C(Nc1ccc(-c2nnn[nH]2)cc1)c1c(O)[nH]c(=S)[nH]c1=O [Formula (IIb), N-(4-(2H-tetrazol-5-yl)phenyl)-6-hydroxy-4-oxo-2-thioxo-1,2,3,4-tetrahydropyrimidine-5-carboxamide] | 0.39 µM |  |  | 147 |  |  |
| O=C(Nc1ccc(-c2cnn[nH]2)cc1)c1c(O)[nH]c(=S)[nH]c1=O [Formula (IIf), N-(4-(1H-1,2,3-triazol-5-yl)phenyl)-6-hydroxy-4-oxo-2-thioxo-1,2,3,4-tetrahydropyrimidine-5-carboxamide] | 0.06 µM and 0.09 µM | comparable to febuxostat |  | 11.1 |  |  |
| CS(=O)(=O)Nc1ccc(NC(=O)c2c(O)[nH]c(=O)[nH]c2=O)cc1 [Formula (Ib), 6-hydroxy-N-(4-(methylsulfonamido)phenyl)-2,4-dioxo-1,2,3,4-tetrahydropyrimidine-5-carboxamide] | 87 µM |  |  |  |  |  |
| O=C(Nc1ccc2n[nH]nc2c1)c1c(O)[nH]c(=O)[nH]c1=O [Formula (IIIa), N-(1H-benzo[d][1,2,3]triazol-6-yl)-6-hydroxy-2,4-dioxo-1,2,3,4-tetrahydropyrimidine-5-carboxamide] | 8.93 µM |  |  | 1.34 |  |  |
